The target of the assay is T1, AtGTR2 (Arabidopsis thaliana, UniProt Q9LV10).
T1 construct: expressed in transfected cells; host or cells: Xenopus oocytes injected with in vitro transcribed cRNA (vector pNB1u)
T1 sequence (Q9LV10 1-616): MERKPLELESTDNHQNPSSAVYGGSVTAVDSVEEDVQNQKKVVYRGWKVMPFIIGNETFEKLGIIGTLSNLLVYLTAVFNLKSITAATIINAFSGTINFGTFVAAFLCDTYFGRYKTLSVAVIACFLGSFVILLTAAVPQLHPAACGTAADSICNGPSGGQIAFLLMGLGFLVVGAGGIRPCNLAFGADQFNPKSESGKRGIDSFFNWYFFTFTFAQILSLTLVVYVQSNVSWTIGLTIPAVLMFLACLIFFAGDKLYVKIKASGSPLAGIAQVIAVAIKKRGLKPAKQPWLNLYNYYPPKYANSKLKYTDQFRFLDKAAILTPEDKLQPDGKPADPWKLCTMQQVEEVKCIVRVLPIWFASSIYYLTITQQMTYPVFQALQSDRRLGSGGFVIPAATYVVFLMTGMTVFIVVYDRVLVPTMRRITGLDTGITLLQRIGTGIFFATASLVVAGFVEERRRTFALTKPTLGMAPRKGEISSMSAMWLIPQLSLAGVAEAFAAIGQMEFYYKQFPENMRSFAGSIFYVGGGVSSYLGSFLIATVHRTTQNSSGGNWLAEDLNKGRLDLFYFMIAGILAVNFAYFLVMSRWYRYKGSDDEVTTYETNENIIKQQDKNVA
Put plainly: Uptake of C14-labeled pOHBG in AtGTR2 expressing oocytes in presence of excess competitor. The format is cell-based. The conditions noted are these: 50× excess unlabeled competitor, AtGTR2, pH 5. On the procedure:
FIG. 3: Biochemical analysis of AtGTR1 and 2 mediated GSL transport in Xenopus oocytes. A and B, pH dependence of AtGTR-mediated GSL transport. A, AtGTR2 mediated 4-MTB uptake measured by LC-MS analysis of oocyte extracts, n=3 oocytes. B, AtGTR1 currents induced by 1 mM 4-MTB were measured at different membrane potentials at pH 5 ([…]), pH 6 (♦), and pH 7 (▴). Currents were normalized to the current induced at pH 5 at −60 mV, error bars are SD, n=4 oocytes. C and D, kinetic analysis of AtGTR-mediated glucosinolate transport. […]
The substrate specificity investigations were extended to include substrates previously identified for the NRT/PTR transporter family namely di- and tripeptides and nitrate. […] However, perfusing with 1 mM NO3^− did result in currents but these amounted only to 1/10th of currents measured when perfusing with 100 μM 4-MTB (FIG. 3F). […]
For assays with radiolabeled substrates, single oocytes were ruptured in 100 μl 10% SDS in 4 ml scintillation vials by shaking for 20-30 minutes. 2.5 ml EcoScint™ scintillation fluid (National Diagnostics) was added, and imported compounds quantified by scintillation counting. For assays with unlabeled substrates, oocyte extracts were analysed by LC-MS. Oocytes were analyzed in batches of 5 oocytes per repetition. […]

Molecules are shown by their SMILES.

Turning to `CSCCCC/C(=N/OS(=O)(=O)O)S[C@@H]1O[C@H](CO)[C@@H](O)[C@H](O)[C@H]1O` [4-MTB, 4-methylthiobutyl glucosinolate], the “effect on uptake of 40 μM C14-labeled pOHBG” value is recorded as “reduced the uptake of pOHBG to background levels”.

These data come from US20140137294A1, “GLUCOSINOLATE TRANSPORTER PROTEIN AND USES THEREOF” (UNIVERSITY OF COPENHAGEN, priority 2010, published 2014).
